Measured values taken from patent publication US10568930B2, “Agents and methods of treatment” (Hexima Limited, priority 2014, dated 2020).
Read-outs that look alike come from different tables or passages of the source.

What was measured:
Candida albicans [1] = assay: Antifungal growth assay, defensin plus chemical fungicide; assay type: cell-based; parameters: key to Synergy: Io-Ee in % inhibition points; <15 none, 15-30 low, 30-60 medium, >60 high; settings: for Expected inhibition: Ee, Limpel formula; for Synergy: Io-Ee
Method: Chemical fungicides were sourced commercially and were prepared as 10× stock solutions in H2O (caspofungin and fenpropimorph) or as a 100× stock in methanol (terbinafine).
(§1) Spores are isolated from sporulating fungus spp. growing on yeast extract peptone dextrose agar (Candida albicans, Cryptococcus gattii—1.5×10^6) or ½ strength Sabouraud dextrose agar (Trichophyton interdigitale, Microsporum fulvum—5×10^4). Spores are removed from the plates by the addition of ½ strength potato dextrose broth (PDB). Spore concentrations are measured using a haemocytometer.
(§2) Antifungal assays were conducted in 96 well microtitre plates. Wells were loaded with 10 μL of filter sterilized (0.22 μm syringe filter, Millipore) defensin (10× stock for each final concentration) or water, 10 μL, of filter sterilized (0.22 μm syringe filter, Millipore) proteinase inhibitor or chemical fungicide (10× stock for each final concentration) or water and 80 μL of 5×10^3 spores/mL in ½ strength PDB. The plates were incubated at 24° C. Fungal growth was assayed by measuring optical density at 595 nm (A595) using a microtitre plate reader (SpectraMax Pro M2; Molecular Devices. Growth was allowed to proceed until the optical density (OD) of the fungus in the absence of any test defensin reached an OD of 0.2. Each test was performed in duplicate.
(§3) Synergy is classified as the difference between the observed % fungal growth inhibition caused by the combination of a defensin and a proteinase inhibitor (or a defensin and a chemical fungicide) (Io value) and the expected % fungal growth inhibition of the defensin and the proteinase inhibitor (or the defensin and the chemical fungicide) based on the sum of the % fungal growth inhibition of the defensin and the proteinase inhibitor (or the defensin and the chemical fungicide) on their own (Ee value calculated according to the Limpel formula used by Richer et al. (1987) supra). The difference, Io-Ee, is the synergy value. A synergy value up to 15 means no significant synergy; 15-30 is a low level of synergy; 30-60 is a medium level of synergy; and >60 is a high level of synergy. Synergy calculations are presented in Tables 2 through 7 wherein, as indicated above, Ee is the expected effect from the additive response according to Limpel's formula expressed as percent inhibition and To is the percent inhibition observed. Synergy occurs when To values are higher than Ee values.

Candida albicans [2] = assay: Antifungal growth assay, defensin plus proteinase inhibitor; assay type: cell-based; parameters: key to Synergy: Io-Ee in % inhibition points; >60 high synergy, <15 none; settings: for Expected inhibition: Ee, Limpel formula; for Synergy: Io-Ee
Method: as §1, §2, §3

Cryptococcus gattii = assay: as above; assay type: cell-based; settings: for Expected inhibition: Ee, Limpel formula; for Synergy: Io-Ee
Method: as §1, §2, §3

[3] = system: Trichophyton interdigitale; assay: as above; assay type: cell-based; settings: for Expected inhibition: Ee, Limpel formula; for Synergy: Io-Ee
Method: as §1, §2, §3

plasma membrane = settings: cited from earlier work
Microsporum fulvum = assay: Antifungal growth assay, defensin plus proteinase inhibitor; assay type: cell-based; settings: for Expected inhibition: Ee, Limpel formula; for Synergy: Io-Ee
Method: as §1, §2, §3

[4] = defensin 1.5 μM + Caspofungin (2 ng/ml)
[5] = defensin 1.5 μM + Fenpropimorph (2 ug/ml)
[6] = defensin 1.5 μM + Terbinafine (4 ng/ml)
[7] = defensin 2 μM + BPTI (0.625 μM)
[8] = defensin 2 μM + HyCPI6 (2.5 μM)
[9] = defensin 2 μM + SlCys9N (2.5 μM)
[10] = defensin 0.5 μM + BPTI (0.625 μM)
[11] = defensin 0.5 μM + HvCPI6 (2.5 μM)
[12] = defensin 0.5 μM + SlCys9N (2.5 μM)
[13] = permeabilizing defensin 1 μM + Caspofungin (2 ng/ml)
[14] = defensin 2 μM + HvCPI6 (2.5 μM)
[15] = defensin 1 μM + BPTI (0.625 μM)
[16] = defensin 1 μM + HvCPI6 (2.5 μM)
[17] = defensin 1 μM + SlCys9N (2.5 μM)
[18] = defensin 0.5 μM + HyCPI6 (0.625 μM)
[19] = defensin 0.5 μM + SlCys9N (5 μM)

With “HXP4: artificial (synthetic) defensin variant, SEQ ID NO:8; permeabilizing (RECKTESHRFKGPCITKPPCRKACISEKFTDGHCSKILRRCLCTKPC; HXP4 protein)” the Observed inhibition (Candida albicans [1]; [4]) was 64.5%, the Expected inhibition (Candida albicans [1]; [4]) was 14.5% and the Synergy (Candida albicans [1]; [4]) was 50.0. For the same substance, the Observed inhibition (Candida albicans [1]; [5]) was 97.6%, the Expected inhibition (Candida albicans [1]; [5]) was 15% and the Synergy (Candida albicans [1]; [5]) was 82.6. It also gave an Observed inhibition (Candida albicans [1]; [6]) of 82.7%, an Expected inhibition (Candida albicans [1]; [6]) of 44.8% and a Synergy (Candida albicans [1]; [6]) of 37.9. It also gave an Observed inhibition (Candida albicans [2]; [7]) of 100%, an Expected inhibition (Candida albicans [2]; [7]) of 16.2% and a Synergy (Candida albicans [2]; [7]) of 83.8. It also gave an Observed inhibition (Candida albicans [2]; [8]) of 93.5%, an Expected inhibition (Candida albicans [2]; [8]) of 15.9% and a Synergy (Candida albicans [2]; [8]) of 77.6. For the same substance, the Observed inhibition (Candida albicans [2]; [9]) was 92.4%, the Expected inhibition (Candida albicans [2]; [9]) was 33% and the Synergy (Candida albicans [2]; [9]) was 59.4. The Observed inhibition (Cryptococcus gattii; [10]) was 97.4%, the Expected inhibition (Cryptococcus gattii; [10]) was 48.8% and the Synergy (Cryptococcus gattii; [10]) was 48.6. For the same substance, the Observed inhibition (Cryptococcus gattii; [11]) was 97.4%, the Expected inhibition (Cryptococcus gattii; [11]) was 18.6% and the Synergy (Cryptococcus gattii; [11]) was 78.8. It also gave an Observed inhibition (Cryptococcus gattii; [12]) of 99.3%, an Expected inhibition (Cryptococcus gattii; [12]) of 0.0% and a Synergy (Cryptococcus gattii; [12]) of 99.3. For the same substance, the Observed inhibition [3, 10] was 69.0%, the Expected inhibition [3, 10] was 32.9% and the Synergy [3, 10] was 36.1. The Observed inhibition [3, 11] was 56.8%, the Expected inhibition [3, 11] was 31.1% and the Synergy [3, 11] was 25.7. The Observed inhibition [3, 12] was 53.0%, the Expected inhibition [3, 12] was 9.7% and the Synergy [3, 12] was 43.4.
For “NaD1: Solanaceous Class II plant defensin from flowers of Nicotiana alata (Q8GTMO); permeabilizing defensin (RECKTESNTFPGICITKPPCRKACISEKFTDGHCSKILRRCLCTKPC; UniProt Q8GTM0 26-72, looked up)”, the Membrane permeabilization (plasma membrane; at concentrations corresponding to the IC50) is listed as “significant membrane permeabilization”, the Membrane permeabilization (plasma membrane; at low concentrations that do not cause growth inhibition, van der Weerden et al. (2008)) is listed as “some membrane permeabilization” and the “Time at which permeabilization begins” value (plasma membrane; van der Weerden et al. (2010)) is listed as ≤ 15 min. The “Time at which permeabilization reaches its maximum” value (plasma membrane; van der Weerden et al. (2010)) was 80 min, the Observed inhibition (Candida albicans [1]; [13]) was 61.7% and the Expected inhibition (Candida albicans [1]; [13]) was 1.2%. It also gave a Synergy (Candida albicans [1]; [13]) of 60.5, an Observed inhibition (Candida albicans [2]; [7]) of 94.1% and an Expected inhibition (Candida albicans [2]; [7]) of 29.7%. For the same substance, the Synergy (Candida albicans [2]; [7]) was 64.4, the Observed inhibition (Candida albicans [2]; [8]) was 64.7% and the Expected inhibition (Candida albicans [2]; [8]) was 0.0%. For the same substance, the Synergy (Candida albicans [2]; [8]) was 64.7, the Observed inhibition (Candida albicans [2]; [9]) was 94.8% and the Expected inhibition (Candida albicans [2]; [9]) was 31.9%. It also gave a Synergy (Candida albicans [2]; [9]) of 62.9, an Observed inhibition (Cryptococcus gattii; [7]) of 95.6% and an Expected inhibition (Cryptococcus gattii; [7]) of 22.0%. It also gave a Synergy (Cryptococcus gattii; [7]) of 73.7, an Observed inhibition (Cryptococcus gattii; [14]) of 96.2% and an Expected inhibition (Cryptococcus gattii; [14]) of 32.1%. It also gave a Synergy (Cryptococcus gattii; [14]) of 64.1, an Observed inhibition (Cryptococcus gattii; [9]) of 98.8% and an Expected inhibition (Cryptococcus gattii; [9]) of 0.0%. The Synergy (Cryptococcus gattii; [9]) was 98.8, the Observed inhibition [3, 15] was 89.1% and the Expected inhibition [3, 15] was 57.9%. It also gave a Synergy [3, 15] of 31.2, an Observed inhibition [3, 16] of 71.6% and an Expected inhibition [3, 16] of 33.5%. For the same substance, the Synergy [3, 16] was 38.1, the Observed inhibition [3, 17] was 81.1% and the Expected inhibition [3, 17] was 28.1%. It also gave a Synergy [3, 17] of 53.0, an Observed inhibition (Microsporum fulvum; [10]) of 52.9% and an Expected inhibition (Microsporum fulvum; [10]) of 34.3%. For the same substance, the Synergy (Microsporum fulvum; [10]) was 18.6, the Observed inhibition (Microsporum fulvum; [18]) was 43.8% and the Expected inhibition (Microsporum fulvum; [18]) was 19.0%. For the same substance, the Synergy (Microsporum fulvum; [18]) was 24.8, the Observed inhibition (Microsporum fulvum; [19]) was 79.9% and the Expected inhibition (Microsporum fulvum; [19]) was 40.7%. It also gave a Synergy (Microsporum fulvum; [19]) of 39.2.
